Reference: patent publication US20240307383A1 (AstraZeneca AB, priority 2023, published 2024)
Like-named read-outs stand apart in the source and are kept apart here.

Key:
[1] = tested on: patients with type 2 diabetes and CKD; conditions: post hoc analysis of the CREDENCE trial; cited from earlier work
[2] = tested on: patients having chronic kidney disease; assay: UACR change from baseline over 12 weeks (Example 3, FIG. 5); assay type: in vivo, human; conditions: dapagliflozin 10 mg alone; plateau over 12-week period; UACR>700 mg/g
[3] = tested on: patients having chronic kidney disease; assay: Systolic blood pressure change from baseline, all participants (Example 3, FIG. 6, Table 10B); assay type: in vivo, human
[4] = tested on: patients having chronic kidney disease; assay: Systolic blood pressure change from baseline, participants having UACR >700 mg/g (FIG. 7A, Table 11A); assay type: in vivo, human; conditions: for Systolic blood pressure, mean change from baseline: Dapa 10 mg + placebo, UACR >700 mg/g
[5] = tested on: patients having chronic kidney disease; assay: Diastolic blood pressure change from baseline, participants having UACR >700 mg/g (FIG. 7B, Table 11B); assay type: in vivo, human; conditions: for Diastolic blood pressure, mean change from baseline: Dapa 10 mg + placebo, UACR >700 mg/g
[6] = tested on: healthy volunteers and patients with type 2 diabetes; conditions: cited from earlier work
[7] = tested on: pregnant rabbits; conditions: period of major embryonic organogenesis; cited from earlier work
[8] = observations so far; cited from earlier work
[9] = dapagliflozin 10 mg + placebo, end of 12-week period, UACR>700 mg/g

Cc1ccc([C@@H]2O[C@H](CO)[C@@H](O)[C@H](O)[C@H]2O)cc1Cc1ccc(-c2ccc(F)cc2)s1 [canagliflozin]
Effect on UACR levels [1]: failed to reduce UACR levels below 300 mg/g in a substantial number of patients

CCOc1ccc(Cc2cc([C@@H]3O[C@H](CO)[C@@H](O)[C@H](O)[C@H]3O)ccc2Cl)cc1 [dapagliflozin, (1S)-1,5-anhydro-1-{4-chloro-3-[(4-ethoxyphenyl)methyl]phenyl}-D-glucitol]
Mean percent decrease of UACR from baseline [2]: approximately 20% | Systolic blood pressure, mean change ([3]; Dapa 10 mg + placebo, all participants): −3.4 | Decrease in systolic blood pressure from baseline ([3]; dapagliflozin 10 mg + placebo, 12-week period, all participants): 3.4% | Systolic blood pressure after final planned dose ([3]; dapagliflozin 10 mg + placebo, week 14): returned to baseline levels | Systolic blood pressure, mean change from baseline ([4]; Week 1): −5.7 | Systolic blood pressure, mean change from baseline ([4]; Week 3): −6.1 | Systolic blood pressure, mean change from baseline ([4]; Week 6): −6.5 | Systolic blood pressure, mean change from baseline ([4]; Week 9): −2.9 | Systolic blood pressure, mean change from baseline ([4]; Week 12): −4.6 | Mean reduction in systolic blood pressure from baseline [4, 9]: over 4% | Diastolic blood pressure, mean change from baseline ([5]; Week 1): −2.9 | Diastolic blood pressure, mean change from baseline ([5]; Week 3): −2.4 | Diastolic blood pressure, mean change from baseline ([5]; Week 6): −2.7 | Diastolic blood pressure, mean change from baseline ([5]; Week 9): −2.0 | Diastolic blood pressure, mean change from baseline ([5]; Week 12): −2.2 | Mean reduction in diastolic blood pressure relative to baseline [5, 9]: approximately 2% | Well tolerated dose ([6]; repeat dose testing for 14 days in healthy volunteers and patients with type 2 diabetes): up to 100 mg/day | Well tolerated dose ([6]; single dose testing in healthy volunteers): up to 500 mg/day

COc1nc(C)cnc1NS(=O)(=O)c1cccnc1-c1ccc(-c2nnco2)cc1 [zibotentan, N-(3-methoxy-5-methylpyrazin-2-yl)-2-[4-(1,3,4-oxadiazol-2-yl)phenyl]pyridine-3-sulfonamide]
Dose levels causing teratogenic effects [7]: ≥ 1 mg/kg/day | Hepatotoxicity [8]: has not been observed
